Reference: patent publication US9339463B2, “Micronized opioid compositions having a specific particle size distribution” (priority 2007, dated 2016)
Values joined by “and” are separate entries in the source; they are usually repeats but may differ in a detail not shown here. Equal values may be shown once.

Assays:
[1] = Physical stability on storage: particle size (Dv90) by laser diffraction; assay type: physicochemical
[2] = Particle size distribution by laser diffraction (Malvern Mastersizer 2000), oxycodone base; assay type: physicochemical; settings: Table 1 analysis; lot 2 in duplicate
[3] = 1 month, stored, including at 25° C./60% RH and/or 40° C./75% RH (not specified)
[4] = 3 months, stored, including at 25° C./60% RH and/or 40° C./75% RH (not specified)
[5] = 6 months, stored, including at 25° C./60% RH and/or 40° C./75% RH (not specified)
[6] = 9 months, stored, including at 25° C./60% RH and/or 40° C./75% RH (not specified)
[7] = 12 months, stored, including at 25° C./60% RH and/or 40° C./75% RH (not specified)

| SMILES | Particle size (Dv90) ([1]; Time 0) | Particle size (Dv90) ([1]; 25° C./60% RH, 6 months) | Particle size (Dv90) ([1]; 25° C./60% RH, 9 months) | Particle size (Dv90) ([1]; 25° C./60% RH, 12 months) | Particle size (Dv90) [1, 3] | Particle size (Dv90) [1, 4] | Particle size (Dv90) [1, 5] | Particle size (Dv90) [1, 6] | Particle size (Dv90) [1, 7] | further results |
| --- | --- | --- | --- | --- | --- | --- | --- | --- | --- | --- |
| COc1ccc2c3c1O[C@H]1C(=O)CC[C@@]4(O)[C@@H](C2)N(C)CC[C@]314 [micronized oxycodone preparation, oxycodone] | 5-6 μ |  |  |  |  |  |  |  |  | Particle size (Dv90 at three months) ([1]; stored at 25° C./60% RH and 40°/75% RH, 3 months): 6-11 μ |
| COc1ccc2c3c1O[C@H]1C(=O)CC[C@@]4(O)[C@@H](C2)N(C)CC[C@]314 [third lot, oxycodone] | 4 μ | 6 μ | 6 μ | 7 μ |  |  |  |  |  |  |
| COc1ccc2c3c1O[C@H]1C(=O)CC[C@@]4(O)[C@@H](C2)N(C)CC[C@]314 [third high purity lot, oxycodone] | 5 μ |  |  |  | 4 μ | 4 μ | 5 μ | 5 μ | 5 μ | Particle size (Dv90) ([1]; 25° C./60% RH, 1 month, listed as third high purity micronized lot): 4 μ; Particle size (Dv90) ([1]; 25° C./60% RH, 3 months, listed as third high purity micronized lot): 4 μ; Particle size (Dv90) ([1]; 25° C./60% RH, 6 months, listed as third high purity micronized lot): 5 μ; Particle size (Dv90) ([1]; 25° C./60% RH, 9 months, listed as third high purity micronized lot): 5 μ; Particle size (Dv90) ([1]; 25° C./60% RH, 12 months, listed as third high purity micronized lot): 5 μ; Particle size (Dv90) ([1]; 40° C./75% RH, 1 month, listed as third high purity micronized lot): 4 μ; Particle size (Dv90) ([1]; 40° C./75% RH, 3 months, listed as third high purity micronized lot): 5 μ; Particle size (Dv90) ([1]; 40° C./75% RH, 6 months, listed as third high purity micronized lot): 5 μ; Particle size (Dv90) ([1]; Time 0, listed as third high purity micronized lot): 5 μ |
| COc1ccc2c3c1O[C@H]1C(=O)CC[C@@]4(O)[C@@H](C2)N(C)CC[C@]314 [first high purity lot, oxycodone] | 4 μ |  |  |  | 5 μ | 5 μ | 5 μ | 6 μ | 6 μ | Particle size (Dv90) ([1]; 25° C./60% RH, 1 month, listed as first high purity micronized lot): 4 μ; Particle size (Dv90) ([1]; 25° C./60% RH, 3 months, listed as first high purity micronized lot): 5 μ; Particle size (Dv90) ([1]; 25° C./60% RH, 6 months, listed as first high purity micronized lot): 5 μ; Particle size (Dv90) ([1]; 25° C./60% RH, 9 months, listed as first high purity micronized lot): 7 μ; Particle size (Dv90) ([1]; 25° C./60% RH, 12 months, listed as first high purity micronized lot): 6 μ; Particle size (Dv90) ([1]; 40° C./75% RH, 1 month, listed as first high purity micronized lot): 5 μ; Particle size (Dv90) ([1]; 40° C./75% RH, 3 months, listed as first high purity micronized lot): 5 μ; Particle size (Dv90) ([1]; 40° C./75% RH, 6 months, listed as first high purity micronized lot): 5 μ; Particle size (Dv90) ([1]; Time 0, listed as first high purity micronized lot): 4 μ |
| COc1ccc2c3c1O[C@H]1C(=O)CC[C@@]4(O)[C@@H](C2)N(C)CC[C@]314 [Lot 2 (waste), oxycodone] |  |  |  |  |  |  |  |  |  | Particle size (Dv10) [2]: 0.5, 0.5 μ; Particle size (Dv50) [2]: 1.6 μ and 2.3 μ; Particle size (Dv90) [2]: 3.3 μ and 4.9 μ |
| COc1ccc2c3c1O[C@H]1C(=O)CC[C@@]4(O)[C@@H](C2)N(C)CC[C@]314 [second lot, oxycodone] | 4 μ | 5 μ | 6 μ | 6 μ |  |  |  |  |  |  |
| COc1ccc2c3c1O[C@H]1C(=O)CC[C@@]4(O)[C@@H](C2)N(C)CC[C@]314 [first lot, oxycodone] | 6 μ | 7 μ | 6 μ | 7 μ |  |  |  |  |  |  |
| COc1ccc2c3c1O[C@H]1C(=O)CC[C@@]4(O)[C@@H](C2)N(C)CC[C@]314 [second high purity lot, oxycodone] | 4 μ |  |  |  | 4 μ | 4 μ | 5 μ | 5 μ | 5 μ | Particle size (Dv90) ([1]; 25° C./60% RH, 1 month, listed as second high purity micronized lot): 4 μ; Particle size (Dv90) ([1]; 25° C./60% RH, 3 months, listed as second high purity micronized lot): 4 μ; Particle size (Dv90) ([1]; 25° C./60% RH, 6 months, listed as second high purity micronized lot): 6 μ; Particle size (Dv90) ([1]; 25° C./60% RH, 9 months, listed as second high purity micronized lot): 5 μ; Particle size (Dv90) ([1]; 25° C./60% RH, 12 months, listed as second high purity micronized lot): 6 μ; Particle size (Dv90) ([1]; 40° C./75% RH, 1 month, listed as second high purity micronized lot): 5 μ; Particle size (Dv90) ([1]; 40° C./75% RH, 3 months, listed as second high purity micronized lot): 5 μ; Particle size (Dv90) ([1]; 40° C./75% RH, 6 months, listed as second high purity micronized lot): 6 μ; Particle size (Dv90) ([1]; Time 0, listed as second high purity micronized lot): 4 μ |
